# Laboratory results from patent US8299285B2, “Compounds for imaging and therapy” (Isis Innovation Limited, priority 2005, dated 2012).
# Several values for one entry are separate records, joined by “and”; a condition that tells them apart may be missing. Identical values can stand only once.
# What was measured:
# Assay type in all cases: physicochemical
# [1] = Fluorescence of Zn[ATS(Me)/A-T-Amino-BTAP] and its precursors; settings: 475 nm, DMSO, 0.01 mM
# Procedure: (§1) UV/Vis and fluorescence spectra were measured with a Perkin Elmer Lamda 19 spectrometer and a Hitachi F-4500 fluorescence spectrophotometer respectively.
# The fluorescence emission spectrum of Zn[ATS(Me)/A-T-Amino-BTAP] can be examined as two regions 400-500 nm, predominantly benzothiazole fluorescence and 490-790 nm, predominantly the zinc (BTSC) fluorescence.
# FIGS. 3 and 4 show the fluorescence emission spectra (a) for Amino-BTAP, 4-Aldehydrophenylimino-BTAP and Zn[ATS(Me)/A-T-Amino-BTAP], (375 nm, D MSO, 0.01 mM); and (b) for Zn[ATS(Me)/A-T-Amino-BTAP], Zn[ATS(Me)/A] and Zn[ATS(Me)/A-T], (475 nm. DMSO, 0.01 mM).
# [2] = Fluorescence spectroscopy of complexes 1-13; settings: for fluorescence strength: 0.01 mmol concentrations in DMSO; for fluorescence emission λmax /nm / Relative intensity / Relative intensity (values in parentheses): excited at 475 nm; for fluorescence emission λmax /nm / Relative intensity: 0.01 mmol solutions in DMSO; for Relative intensity / Relative intensity (values in parentheses): relative to complex 3; for Relative intensity (values in parentheses): 0.1 mmol solutions; for increase in fluorescence intensity relative to Zn[ATSM] and Zn[ATSM/A]: fluorescence emission
# Procedure: as §1
# (§2) The optical properties of a range of mono- and binuclear complexes derived from Zn[ATSM/A] (see the table below) were measured by electronic absorption (UV/vis) and fluorescence spectroscopy.
# Fluorescence spectroscopy: the fluorescence of complexes 1-13 was measured at 0.1, 0.01 and 0.001 mmol concentrations by exciting at a range of wavelengths from 300 nm to 500 n. At 0.1 mmol and 0.01 mmol concentrations all of the complexes show emissions between 534 nm and 604 nm. […] Values of λmax and the intensity of the fluorescence emission relative to that of complex 3 when excited at 475 nm for complexes 1-13 are give in the following table.
# All values relate to 0.01 mmol solutions in DMSO. (a) The values in parentheses refer to 0.1 mmol solutions.
# [3] = UV/vis spectroscopy of complexes 1-13; settings: for λmax (nm), (higher wavelength absorption peak, lowest energy transition) / λmax (nm): DMSO, 0.001 mmol concentration; for ε (mol^-1 dm^3 cm^-1): molar absorption coefficient of the higher wavelength absorption peak, Beer-Lambert law
# Procedure: as §1, §2
# UV/vis spectroscopy: electronic absorption spectra were recorded in DMSO at 0.1, 0.01 and 0.001 mmol concentrations. Values of λmax were obtained from spectra of solutions at 0.001 mmol concentration, as this is sufficiently dilute to enable intermolecular interactions to be neglected.
# [4] = Fluorescence emission spectra of zinc bis(thiosemicarbazone) complexes (Zn[BTSCs]); settings: for fluorescence peak associated with the phenyl ring: FIG. 2; for Fluorescence Emission λmax(1): peak (1), associated with the phenyl component; for Fluorescence Emission λmax(2): peak (2), associated with the BTSC backbone
# Procedure: as §1
# In addition to the fluorescence band around 550 nm the Zn[ATS(R)/P-carb] complexes show a second band with at λma 340 nm. This may be associated with the fluorescence of the terminal benzoic acid group.
# Fluorescence emission of Zn[ATS(R)/P-Cart] for excitation with DMSO at 300 nm.
# To further investigate the effect of addition of a phenyl group onto zinc [BTSC], complexes differing only by the presence of a phenyl group were compared; see FIG. 2.
# The Zn[GT(Et)] peak at 335 nm, is a Raman scattering peak. The Zn[PGTS(Et)] peak at 342 nm and the Zn[GTS(Ph)] peak at 397 nm are due to fluorescence associated with the phenyl ring. These peaks are readily differentiated; true fluorescence emission peaks (λmax,) remain static over a range of excitation wavelengths whereas Raman peaks (λmax) vary, as described by Wayne, R. P., in Principles and Applications of Photochemistry, 1986.
# (§3) The following table gives the position of λmax for the fluorescence emission spectra and the second and third UV/vis Absorptions for a range of Zn[BTSCs]
# Fluorescence peak (1) between 340 and 400 nm, associated with the phenyl component and a second, fluorescence peak (2), present in all complexes between 530 and 570 nm, associated with the BTSC backbone. The intensity of fluorescence peak (1) was always less than that of fluorescence peak (2). Fluorescence peak (2) for the all the phenyl complexes appear at longer wavelengths as these have longer delocalised π systems than their alkyl substituted counterparts.
# [5] = UV/Vis absorption of Zn[BTSCs]; settings: for UV/Vis Absorption λmax(2): second UV/vis absorption; for UV/Vis Absorption λmax(3): third UV/vis absorption
# Procedure: as §1
# The co-ordination of BTSCs to zinc produces an extended delocalised system. Zn[ATSM] was the first of these complexes observed to be fluorescent (Emission: λmax=557 nm) and with UV/Vis absorptions at 308 and 429 nm, in line with the predictions of DFT calculations. A third absorption predicted by DFT at below 300 nm was not observed due to limitations of the spectrometer.
# as §3
# [6] = wavelengths greater than 300 nm
Compound,fluorescence emission λmax /nm [2] [nm],Relative intensity [2],"λmax (nm), (higher wavelength absorption peak, lowest energy transition) [3] [nm]","λmax (nm) [3, 6] [nm]",ε (mol^-1 dm^3 cm^-1) [3] [mol^-1 dm^3 cm^-1],also measured
"CNC1=NN=C(C)C(C)=NN=C(NN)[S][Zn][S]1 [Complex 2, Zn[ATSM/A]]",548,0.10,429,315,29690,"fluorescence intensity in the zinc complex region, versus Zn[ATS(Me)/A-T-Amino-BTAP] [1]: approximately tenfold lower; rank of fluorescence emission curve intensity, FIG. 4 (b) [1]: second highest intensity; fluorescence strength [2]: comparatively weak fluorescence; Relative intensity (values in parentheses) [2]: 0.32"
"CNC1=NN=C(C)C(C)=NN=C(N/N=C/c2ccccc2)[S][Zn][S]1 [Complex 3, Zn[ATSM/A-benzaldehyde]]",553,1.00,451,333,40016,
"CNC1=NN=C(C)C(C)=NN=C(N/N=C/c2ccco2)[S][Zn][S]1 [Complex 4, Zn[ATSM/A-2-furaldehyde]]",551,1.05,455,340,36939,
"CNC1=NN=C(C)C(C)=NN=C(N/N=C/c2ccccc2O)[S][Zn][S]1 [Complex 5, Zn[ATSM/A-salicylaldehyde]]",548,0.95,455,346,51172,
"CNC1=NN=C(C)C(C)=NN=C(N/N=C/c2c(O)ccc3ccccc23)[S][Zn][S]1 [Complex 6, Zn[ATSM/A-2-hydroxynaphthaldehyde]]",558,2.61,460,334,62183,λmax (nm) [3]: 379 nm
"CCCN(CCC)c1ccc(/C=N/NC2=NN=C(C)C(C)=NN=C(NC)[S][Zn][S]2)cc1 [Complex 7, Zn[ATSM/A-4-(di-n-propylamino)benzaldehyde]]",578,2.85,465,321,75127,λmax (nm) [3]: 370 nm
"CNC1=NN=C(C)C(C)=NN=C(N/N=C(\C)C(C)=O)[S][Zn][S]1 [Complex 8, Zn[ATSM/A-butane-2,3-dione]]",561,0.33,455,323,35594,
"CNC1=NN=C(C)C(C)=NN=C(N/N=C/C(=O)c2ccccc2)[S][Zn][S]1 [Complex 9, Zn[ATSM/A-phenylglyoxal]]",605,0.19,474,341,46157,
"CNC1=NN=C(C)C(C)=NN=C(N/N=C/c2ccc(C=O)cc2)[S][Zn][S]1 [Complex 10, Zn[ATSM/A-terephthalaldehyde]]",584,0.23,468,,49912,"fluorescence intensity in the zinc complex region, versus Zn[ATS(Me)/A-T-Amino-BTAP] [1]: approximately tenfold lower; rank of fluorescence emission curve intensity, FIG. 4 (b) [1]: lowest intensity; λmax (nm) [3]: 364 nm"
"CNC1=NN=C(C)C(C)=NN=C(N/N=C/C=N/NC2=NN=C(C)C(C)=NN=C(NC)[S][Zn][S]2)[S][Zn][S]1 [Complex 11, Zn2[ATSM/A-glyoxal-ATSM/A]]",558,2.46,489,330,126450,increase in fluorescence intensity relative to Zn[ATSM] and Zn[ATSM/A] [2]: almost thirty-fold increase
"CNC1=NN=C(C)C(C)=NN=C(N/N=C/c2cccc(/C=N/NC3=NN=C(C)C(C)=NN=C(NC)[S][Zn][S]3)c2)[S][Zn][S]1 [Complex 13, Zn2[ATSM/A-isopthalaldehyde-ZnATSM/A]]",567,2.65,457,339,79475,increase in fluorescence intensity relative to Zn[ATSM] and Zn[ATSM/A] [2]: almost thirty-fold increase
"CCNC1=N[N+]2=CC(c3ccccc3)=[N+]3N=C(NCC)[S][Zn-2]23[S]1 (stereo not drawn) [Zn PGTS(Et), Zn [PGTS(Et)]]",,,,,,fluorescence peak associated with the phenyl ring [4]: 342 nm; Fluorescence Emission λmax(1) [4]: 391 nm; Fluorescence Emission λmax(2) [4]: 567 nm; UV/Vis Absorption λmax(2) [5]: 331 nm; UV/Vis Absorption λmax(3) [5]: 466 nm
CCNC1=N[N+]2=CC=[N+]3N=C(NCC)[S][Zn-2]23[S]1 [Zn[GTS(Et)]],,,,,,Fluorescence Emission λmax(2) [4]: 550 nm; UV/Vis Absorption λmax(2) [5]: 323 nm; UV/Vis Absorption λmax(3) [5]: 445 nm
CNC([S-])=NN=CC=NN=C([S-])NC.[Zn+2] [Zn[GTS(Me)]],,,,,,Fluorescence Emission λmax(2) [4]: 550 nm; UV/Vis Absorption λmax(2) [5]: 334 nm; UV/Vis Absorption λmax(3) [5]: 446 nm
C1=[N+]2N=C(Nc3ccccc3)[S][Zn-2]23[S]C(Nc2ccccc2)=N[N+]3=C1 [Zn[GTS(Ph)]],,,,,,fluorescence peak associated with the phenyl ring [4]: 397 nm; Fluorescence Emission λmax(1) [4]: 340 nm; Fluorescence Emission λmax(2) [4]: 575 nm; UV/Vis Absorption λmax(2) [5]: 342 nm; UV/Vis Absorption λmax(3) [5]: 469 nm
"Zn[ATSM] [Complex 1, reference compound]",534,0.09,429,308,29444,fluorescence strength [2]: comparatively weak fluorescence; Relative intensity (values in parentheses) [2]: 0.35; Emission λmax [4]: 557 nm; UV/Vis absorptions [5]: 308 nm and 429 nm
